Entries after “also recorded” stand apart in the source; their conditions may differ.
Molecular target: SARS-CoV 3CL protease (Severe acute respiratory syndrome coronavirus, UniProt P0C6X7)
Assay: biochemical
Type: biochemical

Row | Structure (SMILES) | IC50 [µM] | potency relative to hexachlorophene (times less potent) | apparent Vmax in presence of inhibitor [µmol/min/mg] | dependence of inhibitory effect on preincubation time | inhibition mechanism / binding mode
1 | Cc1c(O)cccc1C(=O)N[C@@H](CSc1ccccc1)[C@H](O)CN1C[C@H]2CCCC[C@H]2C[C@H]1C(=O)NC(C)(C)C [nelfinavir] | 46 | about 10 times |  |  | 
2 | Oc1cc(Cl)ccc1Oc1ccc(Cl)cc1Cl [triclosan] |  | about 10 times |  |  | 
3 | Oc1c(Cl)cc(Cl)c(Cl)c1Cc1c(O)c(Cl)cc(Cl)c1Cl [hexachlorophene] | 5 |  | 6.98 ± 0.16 | dependent on preincubation time; also recorded: slowly binding inhibitor | classic competitive inhibitor

Source: PMC7092914 (Biochemical and Biophysical Research Communications, 2005)
